Laboratory results from PMC5792912 (Royal Society Open Science, 2018).

What was measured:
COMT in HLC [1] = target: T1, COMT in HLC (Homo sapiens, UniProt P21964); assay: Methylation kinetics in pooled human liver cytosol (HLC); type: in vitro ADME; conditions: for Clint: intrinsic clearance (Vmax/Km); for COMT substrate in human liver cytosol: human liver cytosol with SAM
T1 construct: Pooled human liver cytosol (HLC) from seven male donors; tissue Research Institute for Liver Diseases (Shanghai, China) Lot; QROX; host or cells: pooled human liver cytosol, seven male donors
T1 sequence (P21964 1-221 isoform P21964-2): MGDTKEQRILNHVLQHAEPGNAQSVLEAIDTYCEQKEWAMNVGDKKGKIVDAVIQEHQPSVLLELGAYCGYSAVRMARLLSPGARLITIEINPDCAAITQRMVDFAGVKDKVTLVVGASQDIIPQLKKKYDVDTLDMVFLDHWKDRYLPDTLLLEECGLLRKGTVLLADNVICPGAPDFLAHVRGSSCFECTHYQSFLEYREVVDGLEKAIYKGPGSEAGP
Description: (§1) Reaction mixtures were pre-incubated at 37°C for 5 min and initiated by the addition of SAM to a final concentration of 0.4 mM. The samples were incubated for a certain period of time and the reaction was terminated by the addition of 200 µl ice-cold acetonitrile and then centrifuged at 20 000g, 4°C, for 20 min. Control incubations were performed either without human liver cytosol, or without SAM or without substrate. The supernatants were subjected to ultra-fast liquid chromatography (UFLC) coupled with a diode array detector (DAD) and an electrospray ionization (ESI) mass spectrometer (MS) analyzer.
(§2) 7,8-DHCs and their methylated conjugates were analysed by a UFLC spectrometry system (Shimadzu, Kyoto, Japan), equipped with two LC-20AD pumps, a DGU-20A3 vacuum degasser, a SIL-20ACHT auto-sampler, a CTO-20AC column oven, an SPD-M 20A DAD, a CBM-20A communications bus module, a mass detector (2010EV) with an ESI interface and a computer equipped with UFLC-MS SOLUTION v. 3.41 software. A Shimadzu ODS (75.0 × 2.0 mm, 3 µm) analytical column was used to separate 7,8-DHCs and their methylated conjugates. Column temperature was kept at 40°C. […] The methylation samples were stable over 72 h at 4°C. 7,8-DHC methylation was quantified by the standard curves of the methylated conjugates at the detector wavelength of 325 nm, which were linear from 0.01 to 10 µM (the correlation coefficient was 0.999).
(§3) For estimating kinetic parameters, 7,8-DHCs (0.1–40 µM) were incubated with pooled HLC and S-COMT. 7,8-DHCs (0.1–40 µM) were incubated with HLC or S-COMT for 5 min, using a microsomal protein concentration of 0.5 mg ml^−1 or 0.002 mg ml^−1 for HLC and S-COMT, respectively. Kinetic constants for 7,8-DHCs methylation by HLC and S-COMT were obtained by fitting the Michaelis–Menten kinetics equation (3.1) to experimental data.
(§4) For the Michaelis–Menten kinetic model, 3.1 v=Vmax×[S]/Km+[S], where v is the rate of reaction, [S] is the substrate concentration, Vmax is the maximum velocity estimate and Km is the apparent affinity constant.
(§5) All incubations were performed in duplicate. Kinetic constants were obtained using GraphPad PRISM 6 (GraphPad Software, Inc. La Jolla, CA) software.

[2] = target: T2, recombinant human soluble COMT (S-COMT) (Homo sapiens, UniProt P21964); assay: Methylation kinetics with recombinant human soluble COMT; type: in vitro ADME; conditions: for Clint: intrinsic clearance (Vmax/Km)
T2 construct: made in house
T2 sequence (P21964 1-221 isoform P21964-2): T1 sequence (P21964 1-221 isoform P21964-2)
Description: as §1, §2, §3, §4, §5

COMT in HLC [3] = target: T1, COMT in HLC; assay: Methylation kinetics in pooled human liver cytosol (HLC); type: in vitro ADME; conditions: identified by NMR
[4] = after administration in rats; cited from earlier work
human hepatocytes = conditions: cited from earlier work

| Clint (COMT in HLC [1]; HLC) | COMT substrate in human liver cytosol (COMT in HLC [1]) | Clint [2] | methylated metabolite identified (COMT in HLC [3]) | Structure (SMILES) | Vmax (COMT in HLC [1]; HLC, best-fit value ± s.e.) | Vmax ([2]; best-fit value ± s.e.) | half-life [4] | methyl-derived metabolites (human hepatocytes) |
| --- | --- | --- | --- | --- | --- | --- | --- | --- |
| 0.017 µL/min/mg | COMT substrates | 31.1 µL/min/mg | 8-O-methylated 7,8-DHC | O=C(O)Cc1cc(=O)oc2c(O)c(O)ccc12 [4-ADPN, 4-acetic acid daphnetin] | – | – | – | – |
| 1.91 µL/min/mg | COMT substrates | 424.0 µL/min/mg | 8-O-methylated 7,8-DHC | O=c1cc(-c2ccccc2)c2ccc(O)c(O)c2o1 [4-PDPN, 4-phenyl daphnetin] | – | – | – | – |
| 0.70 µL/min/mg | COMT substrates | 154.8 µL/min/mg | 8-O-methylated 7,8-DHC | Cc1cc(=O)oc2c(O)c(O)ccc12 [4-MDPN, 4-methyl daphnetin] | – | – | – | – |

| Structure (SMILES) | Clint (COMT in HLC [1]; HLC) | COMT substrate in human liver cytosol (COMT in HLC [1]) | Clint [2] | methylated metabolite identified (COMT in HLC [3]) | Vmax (COMT in HLC [1]; HLC, best-fit value ± s.e.) | Vmax ([2]; best-fit value ± s.e.) | half-life [4] | methyl-derived metabolites (human hepatocytes) |
| --- | --- | --- | --- | --- | --- | --- | --- | --- |
| O=c1ccc2ccc(O)c(O)c2o1 [daphnetin, 7,8-dihydroxycoumarin] | 0.52 µL/min/mg | COMT substrates | 169.5 µL/min/mg | 8-O-methylated 7,8-DHC | 0.11 ± 0.0034 nmol/min/mg | 81.4 ± 2.4 nmol/min/mg | 15 min | 37.3% |
